The test system of data set [1] is MDA-MB-231 cells. Put plainly: Cell viability assay (CellTiter-Glo). The class given is cell-based, human. An excerpt: Assays are run in triplicate.
On the technique in general: In ATP-based viability assays light output follows the ATP content of the culture.

The subject of a further data set is A-549 cells. To be noted: read-out: EC50 value; serum starved overnight, 24 h treatment; mean ± S.D. of two to three independent experiments. The procedure:
(§1) Cells were plated into a 96-well plate (5,000 to 10,000 cells per well) in full growth media. The following day, media is exchanged for serum starved media (0.1% BSA in growth media without FBS) and incubated overnight. Cells were treated for 24 hours with peptides at varying concentrations range (0.78 to 200 µM). The cell viability is read using luminescent cell viability dye (CellTiter-Glo, Promega Corporation, USA) by adding 20 µL of dye to each well containing 100 µL of treated media. The cell viability is calculated by dividing each luminescent reading by the average of the luminescent readings for control, untreated cells. Assays are run in triplicate. Dose-response curves were generated and fitted in Prism 5.0 (GraphPad Software, Inc., USA). The EC50 values were generated using the log inhibitor-normalized response variable slope function (Y = 100/(1+10∧((LogEC50-X)*HillSlope)). EC50 values are shown with standard deviation values (S.D.) from at least three independent experiments. For comparison of MDA-MB-231 with HMEC, the cells were not serum starved and plated and treated in HMEC media.

The test system of data set [2] is HMEC (normal human mammary epithelial cells). To be noted: read-out: EC50 value; treated in HMEC media, 24 h; mean ± S.D. The procedure: as §1
Data set [3] concerns IMR-90 normal lung fibroblasts. The following applies: serum starved overnight, 24 h treatment; mean ± S.D. The procedure: as §1
Data set [4] relates to NR6 cells (EGFR null clone of NIH/3T3 fibroblasts). To be noted: read-out: EC50 value; serum starved overnight, 24 h treatment; mean ± S.D. of two to three independent experiments. The procedure: as §1
The test system of data set [5] is MDA-MB-231 cells. The data set is described as follows: Cellular entry of FAM-labeled peptides, live-cell fluorescent confocal microscopy. The class given is cell-based, human. The following applies: N-terminally FAM-labeled peptide, 2.5 µM, serum starved cells in HBSS, live-cell confocal fluorescence. The procedure:
MDA-MB-231 cells (1×10^5 cells per plate) were plated on 35 mm glass-bottom plates (MatTek Corporation, Ashland, MA), allowed to adhere overnight, then serum starved overnight and analyzed the following day in HBSS (Hank’s balanced salt solution). For real-time uptake of the FAM-labeled peptides, after recording background images, the FAM-labeled peptides were added and cells were imaged every two minutes over approximately 30 minutes. After 30 minutes, images were taken less frequently. Images from representative timepoints are shown. For overnight treatment, the cells were treated in serum-starved media, exchanged into HBSS the following day and imaged.

Data set [6] deals with MDA-MB-231 xenograft tumors. The data set is described as follows: MDA-MB-231 xenografts in nude mice. The class given is in vivo. The procedure: NCR-nude female athymic mice were purchased from Taconic Farms, Inc. Mice were injected in the flank region with 1.5×10^6 MDA-MB-231 cells, while anesthetized with ketamine and xylazine. Prior to treatment, tumors were measured in three dimensions using a caliper and tumor volume was calculated by multiplying the three measured dimensions by 0.5 (V = 0.5*l*w*h). Once the tumors reached a minimum size of 100 mm^3, mice were injected intraperitoneally, twice a week, with 200 µL of the TE-64562 peptide (40 mg/kg; 7 µmol/kg), Tat peptide in PBS (20 mg/kg; 7 µmol/kg) or PBS. Endpoints were defined as the tumor size reaching 2000 mm^3 or 20 mm in any dimension, significant weight loss occurring or if the mouse appearing unhealthy according to body conditioning scoring standards. For histological analysis, organs were collected post-sacrifice and fixed in 4% formaldehyde in PBS, followed by paraffin embedding. Sections (6 µm thick) were mounted onto positively charged slides and H&E stained. Images were captured at 20× resolution on a Zeiss Axioplan 2 microscope.

Data set [7] deals with EGFR dimerization in MDA-MB-231 cells. The data set is described as follows: EGFR dimer detection, BS3 cross-linking and Western blot. The class given is cell-based, human. To be noted: 25 µM, 30 minutes; reduction in the loading control (Stat3). The procedure:
Cells were plated in 10-cm dishes, grown to 80% confluence, serum starved overnight, treated and analyzed. For dose response assays, the peptides, EGFR-specific tyrosine kinase inhibitor (TKI) or control was added to each plate and incubated at 37°C for 30 minutes, followed by EGF (10 ng/mL) for an additional 10 minutes at 37°C. For timecourses, TE-64562 and/or EGF were added and the cells were incubated at 37°C for the indicated amounts of time. For EGFR dimer detection, cells were cross-linked after treatment using BS^3 crosslinker (bis[sulfosuccinimidyl] suberate, Thermo scientific, Inc) according to the manufacturer’s instructions. Immediately following treatment, cells were put on ice, washed twice with cold Tris-buffered saline (TBS, pH 7.4) and lysed with radio-immunoprecipitation buffer (50 mM Tris pH 7.5, 100 mM NaCl, 1% NP-40, 0.5% deoxycholate, 0.1% SDS, 1 mM EDTA and protease inhibitor cocktail). After protein concentration determination, cell lysates were analyzed by Western blot analysis with the indicated antibodies following standard procedures and visualized by chemiluminescence. Images were quantified using ImageJ Version 1.43 u.
A general note: A western blot detects proteins with antibodies after separation by electrophoresis.

Like-named read-outs stand apart in the source and are kept apart here. Where a SMILES comes first, the peptide text is derived from it.

Turning to `CC[C@H](C)[C@H](NC(=O)[C@H](Cc1c[nH]cn1)NC(=O)[C@H](CCCNC(=N)N)NC(=O)[C@H](CCCNC(=N)N)NC(=O)[C@H](CCCNC(=N)N)NC(=O)CNC(=O)[C@H](CCCNC(=N)N)NC(=O)[C@H](CCCNC(=N)N)NC(=O)[C@H](CCCNC(=N)N)NC(=O)[C@H](CCC(N)=O)NC(=O)[C@H](CCCNC(=N)N)NC(=O)[C@H](CCCNC(=N)N)NC(=O)[C@H](CCCCN)NC(=O)[C@H](CCCCN)NC(=O)[C@@H](N)CCCNC(=N)N)C(=O)N[C@H](C(=O)N[C@@H](CCCNC(=N)N)C(=O)N[C@@H](CCCCN)C(=O)N[C@@H](CCCNC(=N)N)C(=O)N[C@H](C(=O)N[C@@H](CC(C)C)C(=O)N[C@@H](CCCNC(=N)N)C(=O)N[C@@H](CCCNC(=N)N)C(=O)N[C@@H](CC(C)C)C(=O)N[C@@H](CC(C)C)C(=O)N[C@@H](CCC(N)=O)C(=O)N[C@@H](CCC(=O)O)C(=O)N[C@@H](CCCNC(=N)N)C(=O)O)[C@@H](C)O)C(C)C` [TE-64562] (H-RKKRRQRRRGRRRHIVRKRTLRRLLQER-OH), the EC50 (commonly the concentration needed to bring the measured effect to its halfway point) with MDA-MB-231 cells [1] (cells not serum starved, plated and treated in HMEC media, 24 h, mean ± S.D., read-out: EC50) stood at 7.4 ± 1.9 µM; with MDA-MB-231 cells [1] (serum starved overnight (0.1% BSA, no FBS), 24 h treatment, CellTiter-Glo, mean ± S.D. of at least three independent experiments, read-out: EC50± S.D.), 12.6 ± 2.3 µM; in the data set on A-549 cells, 6.1 ± 0.9 µM; in data set [2] it was 38.4 ± 6.1 µM; in data set [3], 174 ± 54 µM; in data set [4] it was 104 ± 9 µM. Besides, in the data set with MDA-MB-231 cells [5], the “time until peptide entered cells” value is “approximately 10 minutes”. The toxicity in vivo entry in data set [6] (40 mg/kg intraperitoneally bi-weekly) is on record as “does not show any significant non-selective toxicity in vivo”. In addition, the “body weight over the course of the study” value in data set [6] (40 mg/kg intraperitoneally bi-weekly, versus Tat and saline groups) is “No significant difference in body weight”. Besides, in data set [6] (end of 5 weeks of treatment, H&E), the “histological examination of post-treatment liver, spleen and kidney” value is on record as “No differences between the treatment groups”. The “toxicity to the cells in the dimerization experiment” value in data set [7] is listed as “fairly toxic to the cells”.

The record behind these values is PMC3499488, “A Potential Peptide Therapeutic Derived from the Juxtamembrane Domain of the Epidermal Growth Factor Receptor” (PLoS ONE, 2012).
